In the supplement of paper PMC10307832:

Legend:
Test in all cases: relative viability (nuclei count vs DMSO), 5 days (fraction); higher = more cells survive
PC-14 = tested on: PC-14
Outline: (§1)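 Five library-drug doses in √10 steps were combined with a fixed anchor-drug dose, or a single drug was given alone, by pin tool to lung cancer cell lines in 1536-well plates the day after seeding. Nuclei were stained and counted after 5 days. Relative viability is the nuclei count in treated wells over that in vehicle wells, taken as the median of duplicate plates.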

SK-MES-1 = tested on: SK-MES-1
Outline: as §1

NCI-H2087 = tested on: NCI-H2087
Outline: as §1

NCI-H596 = tested on: NCI-H596
Outline: as §1

ChaGo-K-1 = tested on: ChaGo-K-1
Outline: as §1

H3255 = tested on: H3255
Outline: as §1

NCI-H1755 = tested on: NCI-H1755
Outline: as §1

EMC-BAC-2 = tested on: EMC-BAC-2
Outline: as §1

201T = tested on: 201T
Outline: as §1

NCI-H2126 = tested on: NCI-H2126
Outline: as §1

NCI-H322M = tested on: NCI-H322M
Outline: as §1

NCI-H2009 = tested on: NCI-H2009
Outline: as §1

ABC-1 = tested on: ABC-1
Outline: as §1

LXF-289 = tested on: LXF-289
Outline: as §1

HOP-62 = tested on: HOP-62
Outline: as §1

NCI-H3122 = tested on: NCI-H3122
Outline: as §1

CAL-12T = tested on: CAL-12T
Outline: as §1

NCI-H1651 = tested on: NCI-H1651
Outline: as §1

LK-2 = tested on: LK-2
Outline: as §1

NCI-H441 = tested on: NCI-H441
Outline: as §1

NCI-H1734 = tested on: NCI-H1734
Outline: as §1

NCI-H2170 = tested on: NCI-H2170
Outline: as §1

NCI-H647 = tested on: NCI-H647
Outline: as §1

Cc1cnc(-c2cnc(NCCNc3ccc(C#N)cn3)nc2-c2ccc(Cl)cc2Cl)[nH]1 + C[C@@H](Oc1cc(-c2cnn(C3CCNCC3)c2)cnc1N)c1c(Cl)ccc(F)c1Cl [Crizotinib] (partner 1 µM)
relative viability (PC-14; first compound 0.08 µM): 0.911 | relative viability (PC-14; first compound 0.253 µM): 0.811 | relative viability (PC-14; first compound 0.8 µM): 0.896 | relative viability (PC-14; first compound 2.53 µM): 0.807 | relative viability (SK-MES-1; first compound 0.08 µM): 0.97 | relative viability (SK-MES-1; first compound 0.253 µM): 0.937 | relative viability (SK-MES-1; first compound 0.8 µM): 1.05 | relative viability (SK-MES-1; first compound 2.53 µM): 0.941 | relative viability (NCI-H2087; first compound 0.08 µM): 0.744 | relative viability (NCI-H2087; first compound 0.253 µM): 0.823 | relative viability (NCI-H2087; first compound 0.8 µM): 0.862 | relative viability (NCI-H2087; first compound 2.53 µM): 0.693 | relative viability (NCI-H596; first compound 0.08 µM): 0.921 | relative viability (NCI-H596; first compound 0.253 µM): 0.906 | relative viability (NCI-H596; first compound 0.8 µM): 0.968 | relative viability (NCI-H596; first compound 2.53 µM): 0.927 | relative viability (ChaGo-K-1; first compound 0.08 µM): 1.17 | relative viability (ChaGo-K-1; first compound 0.253 µM): 0.999 | relative viability (ChaGo-K-1; first compound 0.8 µM): 1.06 | relative viability (ChaGo-K-1; first compound 2.53 µM): 0.989 | relative viability (H3255; first compound 0.08 µM): 1.03 | relative viability (H3255; first compound 0.253 µM): 0.809 | relative viability (H3255; first compound 0.8 µM): 0.853 | relative viability (H3255; first compound 2.53 µM): 0.79 | relative viability (NCI-H1755; first compound 0.08 µM): 0.853 | relative viability (NCI-H1755; first compound 0.253 µM): 0.856 | relative viability (NCI-H1755; first compound 0.8 µM): 0.824 | relative viability (NCI-H1755; first compound 2.53 µM): 0.804 | relative viability (EMC-BAC-2; first compound 0.08 µM): 0.841 | relative viability (EMC-BAC-2; first compound 0.253 µM): 0.739 | relative viability (EMC-BAC-2; first compound 0.8 µM): 0.814 | relative viability (EMC-BAC-2; first compound 2.53 µM): 0.703 | relative viability (201T; first compound 0.08 µM): 1.07 | relative viability (201T; first compound 0.253 µM): 0.982 | relative viability (201T; first compound 0.8 µM): 1.02 | relative viability (201T; first compound 2.53 µM): 0.998 | relative viability (NCI-H2126; first compound 0.08 µM): 0.996 | relative viability (NCI-H2126; first compound 0.253 µM): 1.02 | relative viability (NCI-H2126; first compound 0.8 µM): 0.968 | relative viability (NCI-H2126; first compound 2.53 µM): 1.01 | relative viability (NCI-H322M; first compound 0.08 µM): 0.925 | relative viability (NCI-H322M; first compound 0.253 µM): 0.81 | relative viability (NCI-H322M; first compound 0.8 µM): 0.821 | relative viability (NCI-H322M; first compound 2.53 µM): 0.858 | relative viability (NCI-H2009; first compound 0.08 µM): 1.09 | relative viability (NCI-H2009; first compound 0.253 µM): 0.958 | relative viability (NCI-H2009; first compound 0.8 µM): 1 | relative viability (NCI-H2009; first compound 2.53 µM): 0.892 | relative viability (ABC-1; first compound 0.08 µM): 1.03 | relative viability (ABC-1; first compound 0.253 µM): 0.831 | relative viability (ABC-1; first compound 0.8 µM): 1.23 | relative viability (ABC-1; first compound 2.53 µM): 1.05 | relative viability (LXF-289; first compound 0.08 µM): 0.852 | relative viability (LXF-289; first compound 0.253 µM): 0.796 | relative viability (LXF-289; first compound 0.8 µM): 0.839 | relative viability (LXF-289; first compound 2.53 µM): 0.87 | relative viability (HOP-62; first compound 0.08 µM): 0.892 | relative viability (HOP-62; first compound 0.253 µM): 0.816 | relative viability (HOP-62; first compound 0.8 µM): 0.997 | relative viability (HOP-62; first compound 2.53 µM): 0.853 | relative viability (NCI-H3122; first compound 0.08 µM): 0.285 | relative viability (NCI-H3122; first compound 0.253 µM): 0.319 | relative viability (NCI-H3122; first compound 0.8 µM): 0.253 | relative viability (NCI-H3122; first compound 2.53 µM): 0.304 | relative viability (CAL-12T; first compound 0.08 µM): 0.722 | relative viability (CAL-12T; first compound 0.253 µM): 0.507 | relative viability (CAL-12T; first compound 0.8 µM): 0.529 | relative viability (CAL-12T; first compound 2.53 µM): 0.376 | relative viability (NCI-H1651; first compound 0.08 µM): 0.915 | relative viability (NCI-H1651; first compound 0.253 µM): 0.797 | relative viability (NCI-H1651; first compound 0.8 µM): 0.852 | relative viability (NCI-H1651; first compound 2.53 µM): 0.825 | relative viability (LK-2; first compound 0.08 µM): 0.194 | relative viability (LK-2; first compound 0.253 µM): 0.239 | relative viability (LK-2; first compound 0.8 µM): 0.242 | relative viability (LK-2; first compound 2.53 µM): 0.236 | relative viability (NCI-H441; first compound 0.08 µM): 0.845 | relative viability (NCI-H441; first compound 0.253 µM): 0.528 | relative viability (NCI-H441; first compound 0.8 µM): 0.713 | relative viability (NCI-H441; first compound 2.53 µM): 0.791 | relative viability (NCI-H1734; first compound 0.08 µM): 0.65 | relative viability (NCI-H1734; first compound 0.253 µM): 0.636 | relative viability (NCI-H1734; first compound 0.8 µM): 0.647 | relative viability (NCI-H1734; first compound 2.53 µM): 0.631 | relative viability (NCI-H2170; first compound 0.08 µM): 1.25 | relative viability (NCI-H2170; first compound 0.253 µM): 1.07 | relative viability (NCI-H2170; first compound 0.8 µM): 1.26 | relative viability (NCI-H2170; first compound 2.53 µM): 1.06 | relative viability (NCI-H647; first compound 0.08 µM): 1.06 | relative viability (NCI-H647; first compound 0.253 µM): 0.783 | relative viability (NCI-H647; first compound 0.8 µM): 1.07 | relative viability (NCI-H647; first compound 2.53 µM): 0.927
